Data: ChEMBL document CHEMBL1201862, “PubChem BioAssay data set” (2004)
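Compound exposure: 48 hours, 5 concentrations, 96-well plates. GI50 marks 50% less growth.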 Active and inactive are the calls of the source. Rule as the data show it: active = GI50 up to about 1.1 µM and inactive = higher.

How the values were obtained:
Experiment in all cases: NCI-60 cell line screen, 48 h
A549 = tested on: A549
786-0 = tested on: 786-0
EKVX = tested on: EKVX
SNB-75 = tested on: SNB-75
KM12 = tested on: KM12
HOP-62 = tested on: HOP-62
NCI-H23 = tested on: NCI-H23
SNB-19 = tested on: SNB-19
A498 = tested on: A498
U-251 = tested on: U-251
OVCAR-8 = tested on: OVCAR-8
SK-OV-3 = tested on: SK-OV-3
SK-MEL-28 = tested on: SK-MEL-28
M14 = tested on: M14
SK-MEL-5 = tested on: SK-MEL-5
OVCAR-4 = tested on: OVCAR-4
HL-60 = tested on: HL-60
HCT-15 = tested on: HCT-15
OVCAR-5 = tested on: OVCAR-5
RXF 393 = tested on: RXF 393
SF-268 = tested on: SF-268
UACC-257 = tested on: UACC-257
SF-295 = tested on: SF-295
DMS-273 = tested on: DMS-273
CAKI-1 = tested on: CAKI-1
HT-29 = tested on: HT-29
SK-MEL-2 = tested on: SK-MEL-2
DMS-114 = tested on: DMS-114
HCT-116 = tested on: HCT-116
CCRF-CEM = tested on: CCRF-CEM
SN12C = tested on: SN12C
SR = tested on: SR
UACC-62 = tested on: UACC-62
TK-10 = tested on: TK-10
NCI-H226 = tested on: NCI-H226
ACHN = tested on: ACHN
SNB-78 = tested on: SNB-78
DLD-1 = tested on: DLD-1
SF-539 = tested on: SF-539
MOLT-4 = tested on: MOLT-4
SW-620 = tested on: SW-620
Malme-3M = tested on: Malme-3M
K562 = tested on: K562
HCC 2998 = tested on: HCC 2998
NCI-H522 = tested on: NCI-H522
NCI-H460 = tested on: NCI-H460
OVCAR-3 = tested on: OVCAR-3
UO-31 = tested on: UO-31
M19-MEL = tested on: M19-MEL
LOX IMVI = tested on: LOX IMVI
RPMI-8226 = tested on: RPMI-8226
T47D = tested on: T47D
MDA-MB-435 = tested on: MDA-MB-435
MDA-N = tested on: MDA-N
Hs-578T = tested on: Hs-578T
IGROV-1 = tested on: IGROV-1
MCF7 = tested on: MCF7
NCI/ADR-RES = tested on: NCI/ADR-RES
HOP-92 = tested on: HOP-92
COLO 205 = tested on: COLO 205
DU-145 = tested on: DU-145
MDA-MB-231 = tested on: MDA-MB-231
PC-3 = tested on: PC-3
BT-549 = tested on: BT-549

Measured: GI50

Cc1nc2c(n1-c1ccccc1)C(=O)c1ccccc1C2=O
inactive: A549 38.5 µM | 786-0 76.7 µM | EKVX > 100 µM | SNB-75 > 100 µM | KM12 50.2 µM | HOP-62 > 100 µM | NCI-H23 22.4 µM | SNB-19 50.2 µM | A498 > 100 µM | U-251 34 µM | OVCAR-8 42.4 µM | SK-OV-3 > 100 µM | SK-MEL-28 96.2 µM | M14 42 µM | SK-MEL-5 25.8 µM | OVCAR-4 28.2 µM | HL-60 14.7 µM | OVCAR-5 > 100 µM | RXF 393 75.2 µM | SF-268 54.8 µM | UACC-257 22.4 µM | SF-295 38.4 µM | DMS-273 39.4 µM | CAKI-1 70.8 µM | HT-29 32.7 µM | SK-MEL-2 > 100 µM | DMS-114 21.6 µM | HCT-116 22.2 µM | CCRF-CEM 32.1 µM | SN12C 38.2 µM | SR 37.1 µM | UACC-62 23.4 µM | TK-10 > 100 µM | NCI-H226 58.1 µM | ACHN 56.9 µM | SNB-78 27.5 µM | DLD-1 48.5 µM | SF-539 41.7 µM | MOLT-4 30.3 µM | SW-620 35.5 µM | Malme-3M 11.3 µM | K562 32.2 µM | HCC 2998 39.6 µM | NCI-H522 25.2 µM | NCI-H460 39.3 µM | OVCAR-3 20.7 µM | UO-31 73.3 µM | M19-MEL 17.9 µM
20.6 µM: HCT-15

Cc1ccc(Nc2ncnc3sc(SCc4ccccc4)nc23)cc1
57.7 µM: HCT-15
inactive: LOX IMVI > 100 µM | A549 88.9 µM | 786-0 > 100 µM | RPMI-8226 48 µM | EKVX > 100 µM | SNB-75 > 100 µM | KM12 > 100 µM | HOP-62 > 100 µM | NCI-H23 > 100 µM | SNB-19 > 100 µM | A498 8.81 µM | U-251 > 100 µM | OVCAR-8 > 100 µM | SK-OV-3 > 100 µM | SK-MEL-28 > 100 µM | T47D 84.7 µM | M14 > 100 µM | SK-MEL-5 82.6 µM | OVCAR-4 > 100 µM | MDA-MB-435 > 100 µM | MDA-N > 100 µM | HL-60 > 100 µM | Hs-578T > 100 µM | OVCAR-5 43.7 µM | RXF 393 84.9 µM | IGROV-1 > 100 µM | SF-268 > 100 µM | UACC-257 > 100 µM | SF-295 74.8 µM | MCF7 > 100 µM | CAKI-1 26 µM | HT-29 36.1 µM | SK-MEL-2 > 100 µM | NCI/ADR-RES > 100 µM | HCT-116 > 100 µM | CCRF-CEM > 100 µM | SN12C > 100 µM | SR > 100 µM | HOP-92 31.3 µM | COLO 205 > 100 µM | TK-10 52.4 µM | NCI-H226 > 100 µM | DU-145 27.3 µM | ACHN 32 µM | SF-539 > 100 µM | MOLT-4 > 100 µM | MDA-MB-231 > 100 µM | SW-620 > 100 µM | Malme-3M > 100 µM | PC-3 90.6 µM | K562 > 100 µM | HCC 2998 33.7 µM | NCI-H522 > 100 µM | NCI-H460 > 100 µM | OVCAR-3 > 100 µM | BT-549 > 100 µM | UO-31 56 µM

CCOC(=O)n1ccc2c(C(=O)OC)c(C(=O)OC)cc(/C(=C/C(=O)OC)C(=O)OC)c21
> 10 µM: HCT-15
inactive: LOX IMVI > 100 µM | A549 > 100 µM | 786-0 > 100 µM | RPMI-8226 26.5 µM | EKVX > 100 µM | SNB-75 > 100 µM | KM12 > 100 µM | HOP-62 > 100 µM | NCI-H23 > 100 µM | SNB-19 > 100 µM | A498 > 100 µM | U-251 > 100 µM | OVCAR-8 > 100 µM | SK-OV-3 > 100 µM | SK-MEL-28 > 100 µM | T47D 74.5 µM | M14 > 100 µM | SK-MEL-5 > 100 µM | OVCAR-4 > 100 µM | MDA-MB-435 > 100 µM | MDA-N 83.6 µM | HL-60 > 100 µM | Hs-578T > 100 µM | OVCAR-5 > 100 µM | RXF 393 66.8 µM | IGROV-1 > 100 µM | SF-268 > 100 µM | UACC-257 > 100 µM | SF-295 > 100 µM | MCF7 > 100 µM | CAKI-1 > 100 µM | HT-29 > 100 µM | SK-MEL-2 > 100 µM | NCI/ADR-RES > 100 µM | HCT-116 89.3 µM | CCRF-CEM 10.4 µM | SN12C > 100 µM | SR 79.8 µM | UACC-62 82.2 µM | HOP-92 34.3 µM | COLO 205 > 100 µM | TK-10 > 100 µM | NCI-H226 > 100 µM | DU-145 > 100 µM | ACHN > 100 µM | SF-539 > 100 µM | MOLT-4 32.1 µM | MDA-MB-231 > 100 µM | SW-620 > 100 µM | Malme-3M > 100 µM | PC-3 > 100 µM | K562 26.5 µM | HCC 2998 > 100 µM | NCI-H522 57.1 µM | NCI-H460 > 100 µM | OVCAR-3 > 100 µM | BT-549 60.7 µM | UO-31 92.5 µM
